What was measured:
[1] = test system: ATXN3/Q75 aggregation in 293 ATXN3/Q75-GFP cells; assay: ATXN3/Q75 aggregation analysis by high-content analysis in 293 ATXN3/Q75-GFP cells; assay type: cell-based, Human; conditions: at 100 nM; 8 h pre-treatment, then doxycycline and oxaliplatin 6 days
Method: (§1) Human 293 ATXN3/Q75-GFP cells were cultured in Dulbecco's modified Eagle's medium (DMEM) containing 10% fetal bovine serum (FBS), 5 μg/mL blasticidin, and 100 μg/mL hygromycin (InvivoGen). Human neuroblastoma SH-SY5Y cells (ATCC No. CRL-2266) were cultured in DMEM F12 supplemented with 10% FBS. Mouse RAW 264.7 macrophages and BV-2 microglia were cultured in DMEM containing 10% FBS. Cells were all cultured in a 37° C. incubator containing 5% CO2.
293 ATXN3/Q75-GFP cells were cultured in 96-well (2×10^4/well) plates for 24 h and treated with different concentrations of suberoylanilide hydroxamic acid (SAHA, Cayman Chemical) (100 nM), Paeonia lactiflora, Glycyrrhiza uralensis, or Shao Yao Kan Tsao Tang (SK Tang) (0.01-10 μg/mL) for 8 h. Next, doxycycline (10 μg/mL, BD) and oxaliplatin (5 μM, Sigma) were added for 6 days. Cells were then stained with Hoechst 33342 (0.1 μg/mL, Sigma-Aldrich). Aggregation was then analyzed by high-content analysis (HCA) system (ImageXpressMICRO, Molecular Devices). The histone deacetylase inhibitor SAHA, known to reduce SDS-insoluble polyQ aggregates, was included for comparison.
To normalize data, the relative aggregation level in untreated cells is set as 100%. […] Good aggregation-inhibitory potential can be seen from Paeonia lactiflora (75-78% at 1-10 μg/mL), Glycyrrhiza uralensis (73-85% at 0.01-1 μg/mL), and SK Tang (79-84% at 0.01-10 μg/mL). […]

NO = NO secretion in LPS-stimulated RAW 264.7 macrophages (Griess reagent); assay type: cell-based, Mouse; conditions: 50 μM, 8 h pre-treatment, LPS 1 μg/mL 20 h
Method: as §1
(§2) The anti-inflammatory activity of SK Tang was examined using LPS-stimulated RAW 264.7 macrophage and BV-2 microglia. RAW 264.7 cells (10^6) were cultured in 6-well plates for 20 h and pre-treated with celecoxib, which is a nonsteroidal anti-inflammatory drug (named as Cele. in FIGS. 4A-4D) (50 μM) or SK Tang (0.5-2 mg/mL) for 8 h. Next, cells were stimulated by LPS (1 μg/mL) for 20 h. LPS-induced secretions of NO, TNF-α, IL-1β, and IL-6 in RAW 264.7 cells were then determined using Griess reagent or ELISA assay.
(§3) To normalize data, the relative NO/TNF-α/IL-1β/IL-6 level in LPS-stimulated cells is set as 100%. As shown in FIGS. 4A-4D, the exposure of RAW 264.7 cells to LPS results in significant secretions of NO, TNF-α, IL-1β, and IL-6 after 24 h incubation (1-12% vs. 100%, P<0.001). […]

TNF-α = TNF-α secretion in LPS-stimulated RAW 264.7 macrophages (ELISA); assay type: cell-based, Mouse; conditions: 50 μM, 8 h pre-treatment, LPS 1 μg/mL 20 h
Method: as §1, §2, §3

IL-1β = IL-1β secretion in LPS-stimulated RAW 264.7 macrophages (ELISA); assay type: cell-based, Mouse; conditions: 50 μM, 8 h pre-treatment, LPS 1 μg/mL 20 h
Method: as §1, §2, §3

IL-6 = IL-6 secretion in LPS-stimulated RAW 264.7 macrophages (ELISA); assay type: cell-based, Mouse; conditions: 50 μM, 8 h pre-treatment, LPS 1 μg/mL 20 h
Method: as §1, §2, §3

SMILES | ATXN3/Q75 aggregation relative to untreated cells (100%) [1] [%] | NO level relative to LPS-stimulated cells (100%) (NO) [%] | TNF-α level relative to LPS-stimulated cells (100%) (TNF-α) [%] | IL-1β level relative to LPS-stimulated cells (100%) (IL-1β) [%] | IL-6 level relative to LPS-stimulated cells (100%) (IL-6) [%]
O=C(CCCCCCC(=O)Nc1ccccc1)NO [SAHA, suberoylanilide hydroxamic acid] | 85 | – | – | – | –
Cc1ccc(-c2cc(C(F)(F)F)nn2-c2ccc(S(N)(=O)=O)cc2)cc1 [celecoxib] | – | 39 | 23 | 20 | 29

Source: US10213470B2, “Method for treating spinocerebellar ataxias” (NATIONAL TAIWAN NORMAL UNIVERSITY, priority 2015, dated 2019)
